≈ marks a conversion by molar mass, not a printed value. Calls of active or inactive are those of the source. The rule behind the calls is not given here.
Assays:
Staphylococcus aureus [1] = assay: Antibacterial activity against Staphylococcus aureus NCTC 13616 assessed as reduction in bacterial growth incubated for 20 hrs by microplate reader method; format: functional
Staphylococcus aureus [2] = assay: Antibacterial activity against Staphylococcus aureus ATCC 9144 assessed as reduction in bacterial growth incubated for 20 hrs by microplate reader method; format: functional
Staphylococcus aureus [3] = assay: Antibacterial activity against Staphylococcus aureus USA 300 assessed as reduction in bacterial growth incubated for 20 hrs by microplate reader method; format: functional
Staphylococcus aureus [4] = assay: Antibacterial activity against Staphylococcus aureus 1199B assessed as reduction in bacterial growth incubated for 20 hrs by microplate reader method; format: functional
Enterococcus faecalis [5] = assay: Antibacterial activity against Vanomycin-sensitive Enterococcus faecalis NCTC 775 assessed as reduction in bacterial growth incubated for 20 hrs by microplate reader method; format: functional
Enterococcus faecalis [6] = assay: Antibacterial activity against Vanomycin-resistant Enterococcus faecalis NCTC 12201 assessed as reduction in bacterial growth incubated for 20 hrs by microplate reader method; format: functional
Enterococcus faecium = assay: Antibacterial activity against Vanomycin-resistant Enterococcus faecium NCTC 12204 assessed as reduction in bacterial growth incubated for 20 hrs by microplate reader method; format: functional
Acinetobacter baumannii [7] = assay: Antibacterial activity against Acinetobacter baumannii AYE assessed as reduction in bacterial growth incubated for 20 hrs in presence of PMBN by microplate reader method; format: functional, organism-based
Acinetobacter baumannii [8] = assay: Antibacterial activity against Acinetobacter baumannii ATCC 17978 assessed as reduction in bacterial growth incubated for 20 hrs in presence of PMBN by microplate reader method; format: functional, organism-based
Pseudomonas aeruginosa [9] = assay: Antibacterial activity against Pseudomonas aeruginosa PAO1 assessed as reduction in bacterial growth incubated for 20 hrs in presence of PMBN by microplate reader method; format: functional
Pseudomonas aeruginosa [10] = assay: Antibacterial activity against Pseudomonas aeruginosa NCTC 13437 assessed as reduction in bacterial growth incubated for 20 hrs in presence of PMBN by microplate reader method; format: functional, organism-based
Escherichia coli = assay: Antibacterial activity against Escherichia coli NCTC 12923 assessed as reduction in bacterial growth incubated for 20 hrs in presence of PMBN by microplate reader method; format: functional, organism-based

| SMILES | MIC (Staphylococcus aureus [1]) [µg/mL] | MIC (Staphylococcus aureus [2]) [µg/mL] | MIC (Staphylococcus aureus [3]) [µg/mL] | MIC (Staphylococcus aureus [4]) [µg/mL] | MIC (Enterococcus faecalis [5]) [µg/mL] | MIC (Enterococcus faecalis [6]) [µg/mL] | MIC (Enterococcus faecium) [µg/mL] | Activity (Acinetobacter baumannii [7]) | Activity (Acinetobacter baumannii [8]) | Activity (Pseudomonas aeruginosa [9]) | Activity (Pseudomonas aeruginosa [10]) | Activity (Escherichia coli) | MIC (Pseudomonas aeruginosa [9]) [µg/mL] |
| --- | --- | --- | --- | --- | --- | --- | --- | --- | --- | --- | --- | --- | --- |
| O=C(NC[C@H]1CN(c2ccc(N3CCOCC3)c(F)c2)C(=O)O1)c1cnccn1 | 64 (≈ 159 µM) | 64 (≈ 159 µM) | 64 (≈ 159 µM) | 32 (≈ 79.7 µM) | 64 (≈ 159 µM) | 64 (≈ 159 µM) | 64 (≈ 159 µM) |  |  |  |  |  |  |
| O=C(NC[C@H]1CN(c2ccc(N3CCOCC3)c(F)c2)C(=O)O1)c1cnco1 | 128 (≈ 328 µM) | 128 (≈ 328 µM) | > 128 | 128 (≈ 328 µM) | 64 (≈ 164 µM) | 128 (≈ 328 µM) | 128 (≈ 328 µM) | inactive | inactive | inactive | inactive | inactive |  |
| O=C(NC[C@H]1CN(c2ccc(N3CCOCC3)c(F)c2)C(=O)O1)c1cnc(Br)s1 | 16 (≈ 33 µM) | 16 (≈ 33 µM) | 32 (≈ 65.9 µM) | 32 (≈ 65.9 µM) | 32 (≈ 65.9 µM) | 16 (≈ 33 µM) | 8 (≈ 16.5 µM) | inactive | inactive |  | inactive | inactive | 16 |
| NCCCC(=O)NC[C@H]1CN(c2ccc(N3CCOCC3)c(F)c2)C(=O)O1 | > 128 | > 128 | > 128 | > 128 | > 128 | > 128 | 64 (≈ 168 µM) |  |  |  |  |  |  |
| CCC(=O)NC[C@H]1CN(c2ccc(N3CCOCC3)c(F)c2)C(=O)O1 | 4 (≈ 11.4 µM) | 8 (≈ 22.8 µM) | 8 (≈ 22.8 µM) | 4 (≈ 11.4 µM) | 4 (≈ 11.4 µM) | 4 (≈ 11.4 µM) | 4 (≈ 11.4 µM) |  |  |  |  |  |  |
| O=C(NC[C@H]1CN(c2ccc(N3CCOCC3)c(F)c2)C(=O)O1)C1CC=CC1 | 16 (≈ 41.1 µM) | 16 (≈ 41.1 µM) | 16 (≈ 41.1 µM) | 8 (≈ 20.5 µM) | 16 (≈ 41.1 µM) | 8 (≈ 20.5 µM) | 16 (≈ 41.1 µM) |  |  |  |  |  |  |
| CC(=O)NC[C@H]1CN(c2ccc(N3CCOCC3)c(F)c2)C(=O)O1 [LINEZOLID] |  |  |  |  |  |  | 2 (≈ 5.93 µM) |  |  |  |  |  |  |
| CN1CCC(C(=O)NC[C@H]2CN(c3ccc(N4CCOCC4)c(F)c3)C(=O)O2)C1 (some centres undefined) | > 128 | > 128 | > 128 | > 128 | > 128 | > 128 | > 128 |  |  |  |  |  |  |
| Cc1nc(Br)sc1C(=O)NC[C@H]1CN(c2ccc(N3CCOCC3)c(F)c2)C(=O)O1 | 16 (≈ 32 µM) | 16 (≈ 32 µM) | 16 (≈ 32 µM) | 16 (≈ 32 µM) | 32 (≈ 64.1 µM) | 32 (≈ 64.1 µM) | 32 (≈ 64.1 µM) |  |  |  |  |  |  |
| Cn1cc([N+](=O)[O-])nc1C(=O)NC[C@H]1CN(c2ccc(N3CCOCC3)c(F)c2)C(=O)O1 | > 128 | > 128 | > 128 | > 128 | > 128 | > 128 | > 128 |  |  |  |  |  |  |
| O=C(NC[C@H]1CN(c2ccc(N3CCOCC3)c(F)c2)C(=O)O1)[C@@H]1CCNC1 | > 128 | > 128 | > 128 | > 128 | > 128 | > 128 | > 128 | inactive | inactive | inactive | inactive | inactive |  |
| O=C(NC[C@H]1CN(c2ccc(N3CCOCC3)c(F)c2)C(=O)O1)C1CCC1 | 8 (≈ 21.2 µM) | 16 (≈ 42.4 µM) | 16 (≈ 42.4 µM) | 8 (≈ 21.2 µM) | 16 (≈ 42.4 µM) | 8 (≈ 21.2 µM) | 8 (≈ 21.2 µM) |  |  |  |  |  |  |
| Cc1ncsc1C(=O)NC[C@H]1CN(c2ccc(N3CCOCC3)c(F)c2)C(=O)O1 | 16 (≈ 38.1 µM) | 16 (≈ 38.1 µM) | 16 (≈ 38.1 µM) | 32 (≈ 76.1 µM) | 32 (≈ 76.1 µM) | 16 (≈ 38.1 µM) | 16 (≈ 38.1 µM) | inactive | inactive |  | inactive | inactive | 16 |
| O=C(NC[C@H]1CN(c2ccc(N3CCOCC3)c(F)c2)C(=O)O1)c1cc2ccccc2[nH]1 | > 128 | > 128 | > 128 | > 128 | > 128 | > 128 | > 128 |  |  |  |  |  |  |
| O=C(NC[C@H]1CN(c2ccc(N3CCOCC3)c(F)c2)C(=O)O1)C1CCCS1 (some centres undefined) | 32 (≈ 78.1 µM) | 64 (≈ 156 µM) | 32 (≈ 78.1 µM) | 32 (≈ 78.1 µM) | 32 (≈ 78.1 µM) | 32 (≈ 78.1 µM) | 32 (≈ 78.1 µM) |  |  |  |  |  |  |
| Cc1ccc(CC(=O)NC[C@H]2CN(c3ccc(N4CCOCC4)c(F)c3)C(=O)O2)cc1 | 64 (≈ 150 µM) | 128 (≈ 299 µM) | 128 (≈ 299 µM) | 64 (≈ 150 µM) | 64 (≈ 150 µM) | 16 (≈ 37.4 µM) | 16 (≈ 37.4 µM) |  |  |  |  |  |  |
| O=C(NC[C@H]1CN(c2ccc(N3CCOCC3)c(F)c2)C(=O)O1)[C@H]1CCNC1 | > 128 | > 128 | > 128 | > 128 | > 128 | > 128 | > 128 | inactive | inactive | inactive | inactive | inactive |  |
| O=C(Cc1cccc2ccccc12)NC[C@H]1CN(c2ccc(N3CCOCC3)c(F)c2)C(=O)O1 | > 128 | > 128 | > 128 | > 128 | > 128 | 32 (≈ 69 µM) | 64 (≈ 138 µM) |  |  |  |  |  |  |
| CC(C)C(=O)NC[C@H]1CN(c2ccc(N3CCOCC3)c(F)c2)C(=O)O1 | 16 (≈ 43.8 µM) | 16 (≈ 43.8 µM) | 16 (≈ 43.8 µM) | 8 (≈ 21.9 µM) | 16 (≈ 43.8 µM) | 8 (≈ 21.9 µM) | 8 (≈ 21.9 µM) |  |  |  |  |  |  |
| O=C(Cc1nnn[nH]1)NC[C@H]1CN(c2ccc(N3CCNCC3)c(F)c2)C(=O)O1 | > 128 | > 128 | > 128 | > 128 | > 128 | > 128 | > 128 |  |  |  |  |  |  |
| O=C(NC[C@H]1CN(c2ccc(N3CCOCC3)c(F)c2)C(=O)O1)C1CC1 | 8 (≈ 22 µM) | 8 (≈ 22 µM) | 8 (≈ 22 µM) | 8 (≈ 22 µM) | 8 (≈ 22 µM) | 8 (≈ 22 µM) | 8 (≈ 22 µM) |  |  |  |  |  |  |
| O=C(NC[C@H]1CN(c2ccc(N3CCOCC3)c(F)c2)C(=O)O1)c1cccs1 | 16 (≈ 39.5 µM) | 16 (≈ 39.5 µM) | 16 (≈ 39.5 µM) | 8 (≈ 19.7 µM) | 16 (≈ 39.5 µM) | 8 (≈ 19.7 µM) | 8 (≈ 19.7 µM) | inactive | inactive |  | inactive | inactive | 16 |
| O=C(NC[C@H]1CN(c2ccc(N3CCOCC3)c(F)c2)C(=O)O1)c1cc2ncccc2o1 | 16 (≈ 36.3 µM) | 16 (≈ 36.3 µM) | 16 (≈ 36.3 µM) | 16 (≈ 36.3 µM) | 16 (≈ 36.3 µM) | 8 (≈ 18.2 µM) | 16 (≈ 36.3 µM) |  |  |  |  |  |  |
| O=C(NC[C@H]1CN(c2ccc(N3CCOCC3)c(F)c2)C(=O)O1)c1cncs1 | 16 (≈ 39.4 µM) | 16 (≈ 39.4 µM) | 16 (≈ 39.4 µM) | 16 (≈ 39.4 µM) | 16 (≈ 39.4 µM) | 16 (≈ 39.4 µM) | 16 (≈ 39.4 µM) | inactive | inactive |  | inactive | inactive | 16 |
| NCC(=O)NC[C@H]1CN(c2ccc(N3CCOCC3)c(F)c2)C(=O)O1 | > 128 | > 128 | > 128 | > 128 | 64 (≈ 182 µM) | 64 (≈ 182 µM) | 32 (≈ 90.8 µM) |  |  |  |  |  |  |
| CCCC(=O)NC[C@H]1CN(c2ccc(N3CCOCC3)c(F)c2)C(=O)O1 | 8 (≈ 21.9 µM) | 8 (≈ 21.9 µM) | 16 (≈ 43.8 µM) | 8 (≈ 21.9 µM) | 8 (≈ 21.9 µM) | 8 (≈ 21.9 µM) | 8 (≈ 21.9 µM) |  |  |  |  |  |  |
| O=C(NC[C@H]1CN(c2ccc(N3CCOCC3)c(F)c2)C(=O)O1)c1cc[nH]c1 | 64 (≈ 165 µM) | 32 (≈ 82.4 µM) | 32 (≈ 82.4 µM) | 64 (≈ 165 µM) | 32 (≈ 82.4 µM) | 32 (≈ 82.4 µM) | 16 (≈ 41.2 µM) |  |  |  |  |  |  |
| O=C(NC[C@H]1CN(c2ccc(N3CCOCC3)c(F)c2)C(=O)O1)c1ccccc1 | 32 (≈ 80.1 µM) | 64 (≈ 160 µM) | 32 (≈ 80.1 µM) | 16 (≈ 40.1 µM) | 32 (≈ 80.1 µM) | 16 (≈ 40.1 µM) | 16 (≈ 40.1 µM) |  |  |  |  |  |  |
| NCCC(=O)NC[C@H]1CN(c2ccc(N3CCOCC3)c(F)c2)C(=O)O1 | > 128 | > 128 | > 128 | > 128 | > 128 | 128 (≈ 349 µM) | 16 (≈ 43.7 µM) |  |  |  |  |  |  |
| O=C(NC[C@H]1CN(c2ccc(N3CCOCC3)c(F)c2)C(=O)O1)c1ccsc1 | 16 (≈ 39.5 µM) | 16 (≈ 39.5 µM) | 16 (≈ 39.5 µM) | 8 (≈ 19.7 µM) | 16 (≈ 39.5 µM) | 8 (≈ 19.7 µM) | 8 (≈ 19.7 µM) |  |  |  |  |  |  |

Source: ChEMBL document CHEMBL5055653, “Synthesis, microbiological evaluation and structure activity relationship analysis of linezolid analogues with different C5-acylamino substituents” (2021)
